Literature values as cited in patent US10398653B2, “Solid preparations containing tofogliflozin and process of producing the same” (CHUGAI SEIYAKU KABUSHIKI KAISHA, priority 2013, dated 2019).

Molecular target: T1, SGLT2 (Homo sapiens, UniProt P31639)
T1 sequence (P31639 1-672): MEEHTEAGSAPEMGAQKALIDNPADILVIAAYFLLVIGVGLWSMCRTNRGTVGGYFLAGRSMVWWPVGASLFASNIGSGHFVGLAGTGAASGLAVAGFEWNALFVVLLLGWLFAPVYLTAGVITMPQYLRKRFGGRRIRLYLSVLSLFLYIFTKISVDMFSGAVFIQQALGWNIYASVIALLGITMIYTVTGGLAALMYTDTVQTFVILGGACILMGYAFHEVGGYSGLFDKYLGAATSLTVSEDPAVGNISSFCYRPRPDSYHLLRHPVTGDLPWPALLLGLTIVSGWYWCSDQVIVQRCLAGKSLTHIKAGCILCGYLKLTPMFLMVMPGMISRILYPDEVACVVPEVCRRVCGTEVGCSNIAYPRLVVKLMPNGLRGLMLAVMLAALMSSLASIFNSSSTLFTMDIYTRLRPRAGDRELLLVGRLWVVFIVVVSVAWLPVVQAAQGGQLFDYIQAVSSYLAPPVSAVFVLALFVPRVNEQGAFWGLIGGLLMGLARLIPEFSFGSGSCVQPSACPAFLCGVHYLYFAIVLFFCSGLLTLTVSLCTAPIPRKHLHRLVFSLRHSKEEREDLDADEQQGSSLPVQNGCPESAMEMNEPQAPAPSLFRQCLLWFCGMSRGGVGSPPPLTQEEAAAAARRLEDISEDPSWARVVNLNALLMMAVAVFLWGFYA
Conditions: as stated in Patent Document 1

## CCc1ccc(Cc2ccc3c(c2)[C@]2(OC3)O[C@H](CO)[C@@H](O)[C@H](O)[C@H]2O)cc1 [tofogliflozin, 1,1-Anhydro-1-C-[5-(4-ethylphenyl)methyl-2-(hydroxymethyl)phenyl]-β-D-glucopyranose]
  Inhibitory activity against SGLT2: excellent inhibitory activity
